Test results from US5468758A, “Crystalline forms of endo-2,3-dihydro-N-(8-methyl)-8-azabicyclo[3.2.1]oct-3-yl)-2-oxo-1H-benz imidazole-1-carboxamides” (Boehringer Ingelheim Italia S.p.A., priority 1992, dated 1995).
Structures can show the parent of a compound that is named as a salt. Where two headings read alike, the source gives them in different places. Values belong to the compound of their own block, whether it stands above or below them.

Experiments:
Assay type in all cases: physicochemical
[1] = Moisture sorption/desorption studies (hygrostat, storage at different temperatures and relative humidity); parameters: water content (Table VI): unit not given here; settings: for moisture absorption: different temperatures and relative humidity, in words
Experimental: The determination of the sorption isotherms was carried out in a hygrostat.
At suitable intervals, the sample was weighed by means of a sample balance. The atmosphere in the hygrostat and therefore around the sample of compound 1a (1b) and 2a (2b) was conditioned and kept by a saturated solutions of a suitable salt:
Na Cl saturated solution 75.3% RH/25° C. 74.8% RH/37° C.
KNO3 saturated solution 93.7% RH/25° C. 90.0% RH/37° C.
At the end of the experiment, after completing the hysteresis, that is the adsorption--desorption cycle of humidity, the compound was assayed for the title and degradation products by TLC and HPLC, the physical state by DSC and water content by TGA.

[2] = Moisture content during tablet manufacturing (mixing and tableting); settings: for Moisture content: % on the weight of compound 1a
Source text: As a consequence, storage of compound 2a may be effected in normal conditions and no particular precautions are needed to avoid exposure to moisture. The titer of compound 2a, when it is stored in normal conditions, is therefore maintained at difference with compound 1a which, in the same conditions, may show different titles according to the water content. The hygroscopicity may also influence the drug title immediately after the manufacturing of tablets. In fact during the process of manufacturing the drug exposed at normal ambient conditions where it can take up moisture.

[3] = Milling studies (FRITSCH Pulverisette 14 Rotor Speed Mill)
Experimental: The milling process was performed by the FRITSCH Pulverisette 14 Rotor Speed Mill supplied with circular sieve stainless steel with trapezoidal 0.080 mm diameter openings. The samples were passed through the mill twice at 20.000 rpm motor speed. The sample is assayed for title and degradation products by TLC and HPLC, physical state by DSC, water content by TGA, particle size distribution by Mercury Instrusion Porosimetry. The mi 11ed compounds are formulated in capsules and tablets at very low dose level (0.5 mg) by direct mixing and direct compression manufacturing method, respectively.

[4] = Accelerated stability tests in tablets and capsules; settings: tablets and capsules in PVC/PVDC blister with aluminium foil
Source text: (§1) Drug stability in these final compositions may be measured in accelerated stability tests or in long term real time stability tests. In accelerated stability tests, the above pharmaceutical compositions are exposed at high temperatures at different degrees of relative humidity for a period of time. Such tests are considered to be indicative of the stability of the composition at normal conditions. In long term real time stability studies the final compositions are exposed to normal conditions of storage at ambient temperatures at different degrees of relative humidity.
(*)according to H. Leven Berger Pharm. Act. Helv. 50 (1975) 88-91 it is
equivalent to 2 years storage at room temperature. Tablets and capsules
are packaged in PVC/PVDC blister with aluminium foil.
(*)according to "Guidelines for stability studies for Human Drugs and
Biologics" (1987) (USA/FDA) it is equivalent to 2 years at room
temperature. Tablets and capsules are packaged in PVC/PVDC blister with […]

[5] = Long-term real time stability tests in tablets and capsules; settings: tablets and capsules in PVC/PVDC blister with aluminium foil
Source text: as §1
Tablets and capsules are packaged in PVC/PVDC blister with aluminium foil

- water content (Table III) ([1]; 37° C., 75% RH, 2 h): 0.34%
- water content (Table III) ([1]; 37° C., 75% RH, 4 h): 0.39%
- water content (Table III) ([1]; 37° C., 75% RH, 6 h): 0.59%
- water content (Table III) ([1]; 37° C., 75% RH, 1 d): 1.95%
- water content (Table III) ([1]; 37° C., 75% RH, 5 d): 5.09%
- water content (Table III) ([1]; 37° C., 75% RH, 9 d): 5.13%
- water content (Table III) ([1]; 37° C., 75% RH, 15 d): 5.13%
- water content (Table III) ([1]; 37° C., 94% RH, 2 h): 1.93%
- water content (Table III) ([1]; 37° C., 94% RH, 4 h): 3.41%
- water content (Table III) ([1]; 37° C., 94% RH, 6 h): 4.68%
- water content (Table III) ([1]; 37° C., 94% RH, 1 d): 5.04%
- water content (Table III) ([1]; 37° C., 94% RH, 5 d): 5.06%
- water content (Table III) ([1]; 37° C., 94% RH, 9 d): 5.06%
- water content (Table III) ([1]; 37° C., 94% RH, 15 d): 5.04%
- water content (Table III) ([1]; Room Temperature, 75% RH, 2 h): 0.68%
- water content (Table III) ([1]; Room Temperature, 75% RH, 4 h): 0.74%
- water content (Table III) ([1]; Room Temperature, 75% RH, 6 h): 0.78%
- water content (Table III) ([1]; Room Temperature, 75% RH, 1 d): 1.25%
- water content (Table III) ([1]; Room Temperature, 75% RH, 4 d): 2.54%
- water content (Table III) ([1]; Room Temperature, 75% RH, 8 d): 3.5%
- water content (Table III) ([1]; Room Temperature, 75% RH, 20 d): 4.59%
- water content (Table III) ([1]; Room Temperature, 75% RH, 40 d): 4.95%
- water content (Table III) ([1]; Room Temperature, 94% RH, 2 h): 1.28%
- water content (Table III) ([1]; Room Temperature, 94% RH, 4 h): 1.92%
- water content (Table III) ([1]; Room Temperature, 94% RH, 6 h): 2.41%
- water content (Table III) ([1]; Room Temperature, 94% RH, 1 d): 5.33%
- water content (Table III) ([1]; Room Temperature, 94% RH, 4 d): 5.39%
- water content (Table III) ([1]; Room Temperature, 94% RH, 8 d): 5.39%
- water content (Table III) ([1]; Room Temperature, 94% RH, 20 d): 5.4%
- water content (Table III) ([1]; Room Temperature, 94% RH, 40 d): 5.42%
- moisture absorption [1]: marked tendency to moisture absorption
- Moisture content ([2]; Final (b), tableting): 1.02%
- Moisture content ([2]; Intermediate (a), mixing): 0.66%
- Moisture content ([2]; Start): 0.62%
- water content during manufacturing ([2]; mixing (a) and tableting (b) phases, in words): increases its water content
- particle size reduction (milling efficiency) ([3]; Mercury Porosimetry Analysis, in words): same rank order
- percentage of degradation products after milling ([3]; rotor speed of 20,000 rpm): 0.65%
- % degradation ([4]; 1 month/55° C., 43200 min): 2.0%
- degraded at 2160 h ([4]; tablets and capsules, 3 months/40° C.-75% RH, read-out: % degradation): 0.8%
- degraded at 2160 h ([4]; tablets and capsules, 3 months/55° C., read-out: % degradation): 3.2%
- degraded at 4320 h ([4]; tablets and capsules, 6 months/40° C.-75% RH, read-out: % degradation): 1.7%
- % degradation ([5]; 3 months/40° C., 129600 min): 0.6%
- % degradation ([5]; 6 months/30° C.-70% RH, 259200 min): 0.5%
- % degradation ([5]; 6 months/40° C., 259200 min): 1.1%
SMILES: CN1C2CCC1CC(NC(=O)n1c(=O)[nH]c3ccccc31)C2 (stereo not drawn) [Compound 1a, endo-2,3-dihydro-N-(8-methyl-8-azabicyclo[3.2.1]oct-3-yl)-2-oxo-1H-benzimidazole-1-carboxamide, reference compound]

SMILES: CCn1c(=O)n(C(=O)N[C@H]2C[C@H]3CC[C@@H](C2)N3C)c2ccccc21 [Compound 1b, endo-3-ethyl-2,3-dihydro-N-(8-methyl-8-azabicyclo-[3.2.1]oct-3-yl)-2-oxo-1H-benzimidazole-1-carboxamide hydrochloride, reference compound]
- water content (Table VI) ([1]; 37° C., 49.2% RH, 2 h, hydrochloride): 2.18
- water content (Table VI) ([1]; 37° C., 49.2% RH, 4 h, hydrochloride): 2.58
- water content (Table VI) ([1]; 37° C., 49.2% RH, 6 h, hydrochloride): 3.01
- water content (Table VI) ([1]; 37° C., 49.2% RH, 1 d, hydrochloride): 4.07
- water content (Table VI) ([1]; 37° C., 49.2% RH, 4 d, hydrochloride): 4.81
- water content (Table VI) ([1]; 37° C., 49.2% RH, 10 d, hydrochloride): 4.82
- water content (Table VI) ([1]; 37° C., 49.2% RH, 30 d, hydrochloride): 4.81
- water content (Table VI) ([1]; 37° C., 49.2% RH, time 0, hydrochloride): 1.13
- water content (Table VI) ([1]; 37° C., 74.8% RH, 2 h, hydrochloride): 4.99
- water content (Table VI) ([1]; 37° C., 74.8% RH, 4 h, hydrochloride): 4.93
- water content (Table VI) ([1]; 37° C., 74.8% RH, 6 h, hydrochloride): 4.97
- water content (Table VI) ([1]; 37° C., 74.8% RH, 1 d, hydrochloride): 4.90
- water content (Table VI) ([1]; 37° C., 74.8% RH, 4 d, hydrochloride): 4.92
- water content (Table VI) ([1]; 37° C., 74.8% RH, 10 d, hydrochloride): 4.85
- water content (Table VI) ([1]; 37° C., 74.8% RH, 30 d, hydrochloride): 4.81
- water content (Table VI) ([1]; 37° C., 74.8% RH, time 0, hydrochloride): 1.13
- moisture absorption ([1]; hydrochloride): marked tendency to moisture absorption
- humidity content ([3]; after milling, hydrochloride): 2.32%
- humidity content ([3]; before milling): 0.87%
